Experimental findings from patent publication US20180305332A1, “Bispiperidinyl Derivatives as Liver X Receptor Beta Agonists, Compositions, and Their Use” (Merck Sharp & Dohme Corp., priority 2015, published 2018) are described below.

Assay [1] has as its target T1, GST tagged LXRbeta LBD (ligand binding domain) (Homo sapiens, UniProt P55055).
T1 construct: purchased Invitrogen pv4658.pps
T1 sequence (P55055 222-460 limits assumed): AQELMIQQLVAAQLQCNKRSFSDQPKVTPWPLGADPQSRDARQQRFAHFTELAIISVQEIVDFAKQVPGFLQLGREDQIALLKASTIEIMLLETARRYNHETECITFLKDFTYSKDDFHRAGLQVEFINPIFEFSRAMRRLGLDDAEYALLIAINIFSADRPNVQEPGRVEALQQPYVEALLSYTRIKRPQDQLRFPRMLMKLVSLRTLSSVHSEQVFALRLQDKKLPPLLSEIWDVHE
As to the kind of experiment: LanthaScreen TR-FRET Liver X Receptor Coactivator Assay, LXR beta-LBD. Type of assay: biochemical. The conditions noted are these: relative to reference T0901317; for EC50: Inflection Point (potency), co-activator recruitment, read-out: LXR beta IP; for Emax: activity at max dose (efficacy), read-out: LXR beta act @ max dose (%). In short, it runs like this:
(§1)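 GST-tagged human LXRα or LXRβ LBD was mixed with test compound, then fluorescein-labelled coactivator peptide and terbium anti-GST antibody added. After room-temperature incubation, TR-FRET was read. Inflection point and Emax expressed relative to reference dual agonist T0901317.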
For orientation: Time-resolved FRET reads energy transfer from a long-lived donor to a nearby acceptor.

Assay [2] concerns the target T2, GST tagged LXRalpha LBD (ligand binding domain) (Homo sapiens, UniProt Q13133).
T2 construct: purchased Invitrogen pv4655
T2 sequence (Q13133 209-447 limits assumed): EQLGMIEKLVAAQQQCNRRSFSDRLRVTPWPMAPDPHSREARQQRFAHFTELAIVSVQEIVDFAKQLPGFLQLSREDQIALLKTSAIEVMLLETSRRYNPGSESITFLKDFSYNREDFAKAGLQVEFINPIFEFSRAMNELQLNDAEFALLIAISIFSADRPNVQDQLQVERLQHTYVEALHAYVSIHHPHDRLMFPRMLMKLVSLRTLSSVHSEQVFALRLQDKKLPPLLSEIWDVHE
As to the kind of experiment: LanthaScreen TR-FRET Liver X Receptor Coactivator Assay, LXR alpha-LBD. It is filed as biochemical. The settings on record: relative to reference T0901317; for EC50: read-out: LXR alpha IP; for Emax: activity at max dose (efficacy), read-out: LXR alpha act @ max dose (%). An outline of the steps: as §1

The mark [3] stands for this setting: Inflection Point (potency), co-activator recruitment.

As to `CN(C)C(=O)c1ccc(N2CCC(C3CCN(C(=O)C4(C(F)(F)F)CCCC4)CC3)CC2)cc1Cl` [Example A-28, 2-chloro-N,N-dimethyl-4-(1′-{[1-(trifluoromethyl)cyclopentyl]carbonyl}-4,4′-bipiperidin-1-yl)benzamide], the values for the EC50 in assay [1] and in assay [2] (setting [3]) were 0.173 µM and 2.47 µM, respectively. For the same compound, the Emax in assay [1] turned out to be 123%; in assay [2], 73%.
The corresponding values for `O=C(c1ccc(N2CCC(C3CCN(C(=O)[C@](O)(c4ccccc4)C(F)(F)C(F)(F)F)CC3)CC2)cc1Cl)N1CCC[C@H]1CO` [Example E-66, (2R)-1-[1′-(3-chloro-4-{[(2S)-2-(hydroxymethyl)pyrrolidin-1-yl]carbonyl}phenyl)-4,4′-bipiperidin-1-yl]-3,3,4,4,4-pentafluoro-1-oxo-2-phenylbutan-2-ol] are 0.012 µM, 0.211 µM, 126% and 72%.
`CN(C)C(=O)c1ccc(N2CCC(C3CCN(C(=O)c4c(F)cccc4C(F)(F)F)CC3)CC2)cc1Cl` [Example A-25, 2-chloro-4-(1′-{[2-fluoro-6-(trifluoromethyl)phenyl]carbonyl}-4,4′-bipiperidin-1-yl)-N,N-dimethylbenzamide]: the EC50 in assay [1] was found to be 0.113 µM; in assay [2] (setting [3]) it was 3.54 µM. In addition, the Emax in assay [1] was 109%; in assay [2], 54%.
The matching figures for `CC(C)C(O)(C(=O)N1CCC(C2CCN(c3ccc(C(N)=O)c(Cl)c3)CC2)CC1)C(F)(F)F` (stereo not drawn) [Example E-4, 2-chloro-4-{1′-[2-hydroxy-3-methyl-2-(trifluoromethyl)butanoyl]-4,4′-bipiperidin-1-yl}benzamide]: 0.051 µM, 0.18 µM, 94% and 67%.
Consider `COC(=O)[C@@H]1CCCN1C(=O)c1ccc(N2CCC(C3CCN(C(=O)[C@](O)(c4ccccc4)C(F)(F)F)CC3)CC2)cc1Cl` [Example E-22, methyl 1-[(2-chloro-4-{1′-[(2R)-3,3,3-trifluoro-2-hydroxy-2-phenylpropanoyl]-4,4′-bipiperidin-1-yl}phenyl)carbonyl]prolinate], for which the figures for the EC50 in assay [1] and in assay [2] (setting [3]) were 0.437 µM and 1.67 µM, respectively. Further, the Emax in assay [1] worked out at 81%; in assay [2], 18%.
Consider `CN(C)C(=O)c1ccc(N2CCC(C3CCN(c4ccccc4C(F)(F)F)CC3)CC2)cc1Cl` [Example A106, 2-chloro-N,N-dimethyl-4-{1′-[2-(trifluoromethyl)phenyl]-4,4′-bipiperidin-1-yl}benzamide], for which the results for the EC50 in assay [1] and in assay [2] (setting [3]) were 0.526 µM and 2.11 µM, respectively. Besides, the Emax amounted to 91% in assay [1] and 27% in assay [2].
The corresponding values for `CC(C)(C)OC(=O)NC1CN(C(=O)c2ccc(N3CCC(C4CCN(C(=O)[C@](O)(c5ccccc5)C(F)(F)C(F)(F)F)CC4)CC3)cc2Cl)C1` [Example E-65, tert-butyl {1-[(2-chloro-4-{1′-[(2R)-3,3,4,4,4-pentafluoro-2-hydroxy-2-phenylbutanoyl]-4,4′-bipiperidin-1-yl}phenyl)carbonyl]azetidin-3-yl}carbamate] are 0.017 µM, 0.635 µM, 137% and 64%.
As to `CN(C)C(=O)c1ccc(N2CCC(C3CCN(C(=O)C(O)(c4ccccc4)C(F)(F)F)CC3)CC2)nc1Cl` (stereo not drawn) [Example B-13, 2-chloro-N,N-dimethyl-6-[1′-(3,3,3-trifluoro-2-hydroxy-2-phenylpropanoyl)-4,4′-bipiperidin-1-yl]pyridine-3-carboxamide], in assay [1], the EC50 was 0.291 µM and the Emax came to 95%. The “LXR alpha IP (nM)” value in assay [2] (setting [3]) is “NO IP”. For the same compound, the Emax in assay [2] came to 28%.
With `O=C(c1ccc(N2CCC(C3CCN(C(=O)[C@](O)(c4ccccc4)C(F)(F)F)CC3)CC2)cc1Cl)N1CC(N2CCCC2)C1` [Example E-42, (2R)-3-(1′-{3-chloro-4-[(3-pyrrolidin-1-ylazetidin-1-yl)carbonyl]phenyl}-4,4′-bipiperidin-1-yl)-1,1,1-trifluoro-3-oxo-2-phenylpropan-2-ol], the figures for the EC50 in assay [1] and in assay [2] (setting [3]) were 0.098 µM and 1.46 µM, respectively. Besides, the results for the Emax in assay [1] and in assay [2] were 39% and 25%, respectively.
Turning to `C=C(C)CC(O)(C(=O)N1CCC(C2CCN(c3ccc(C(=O)N(C)C)c(Cl)c3)CC2)CC1)C(F)(F)F` (stereo not drawn) [Example A-56, 2-chloro-4-{1′-[2-hydroxy-4-methyl-2-(trifluoromethyl)pent-4-enoyl]-4,4′-bipiperidin-1-yl}-N,N-dimethylbenzamide], the EC50 in assay [1] worked out at 0.064 µM; in assay [2] (setting [3]), 1.91 µM. Also, the Emax is 120% in assay [1] and 68% in assay [2].
Regarding `O=C(c1ccc(N2CCC(C3CCN(C(=O)[C@](O)(c4ccccc4)C(F)(F)F)CC3)CC2)cc1Cl)N1CCC[C@H]1CO` [Example E-63, (2R)-3-[1′-(3-chloro-4-{[(2S)-2-(hydroxymethyl)pyrrolidin-1-yl]carbonyl}phenyl)-4,4′-bipiperidin-1-yl]-1,1,1-trifluoro-3-oxo-2-phenylpropan-2-ol], the EC50 in assay [1] is 0.021 µM; in assay [2] (setting [3]) it was 0.359 µM. Further, the Emax in assay [1] was 86%; in assay [2] it was 51%.
Take `COC(=O)C1CN(C(=O)c2ccc(N3CCC(C4CCN(C(=O)[C@](O)(c5ccccc5)C(F)(F)F)CC4)CC3)cc2Cl)C1` [Example E-32, methyl 1-[(2-chloro-4-{1′-[(2R)-3,3,3-trifluoro-2-hydroxy-2-phenylproanoyl]-4,4′-bipiperidin-1-yl}phenyl)carbonyl]azetidine-3-carboxylate]: the EC50 is 0.144 µM in assay [1] and 2.26 µM in assay [2] (setting [3]). Further, the Emax in assay [1] is 57%; in assay [2], 22%.
On to `CC(C)N(C(=O)c1ccc(N2CCC(C3CCN(C(=O)C(O)(C(C)C)C(F)(F)F)CC3)CC2)cc1Cl)C(C)C` (stereo not drawn) [Example E-11, 2-chloro-4-{1′-[2-hydroxy-3-methyl-2-(trifluoromethyl)butanoyl]-4,4′-bipiperidin-1-yl}-N,N-bis(1-methylethyl)benzamide], for which the EC50 in assay [1] is 0.156 µM; in assay [2] (setting [3]), 1.07 µM. For the same compound, the Emax in assay [1] amounted to 33%; in assay [2], 1%.
The matching figures for `CN(C)C(=O)c1ccc(N2CCC(C3CCN(S(=O)(=O)c4ccccc4C#N)CC3)CC2)cc1Cl` [Example A-102, 2-chloro-4-{1′-[(2-cyanophenyl)sulfonyl]-4,4′-bipiperidin-1-yl}-N,N-dimethylbenzamide]: 0.045 µM, 57.1 µM, 130% and 48%.
With `CN(Cc1ccon1)C(=O)c1ccc(N2CCC(C3CCN(C(=O)[C@](O)(c4ccccc4)C(F)(F)F)CC3)CC2)cc1Cl` [Example E-52, 2-chloro-N-(isoxazol-3-ylmethyl)-N-methyl-4-{1′-[(2R)-3,3,3-trifluoro-2-hydroxy-2-phenylpropanoyl]-4,4′-bipiperidin-1-yl}benzamide], the EC50 in assay [1] turned out to be 0.206 µM; in assay [2] (setting [3]), 1.42 µM. The Emax in assay [1] is 78%; in assay [2] it was 28%.
The corresponding values for `CN(C)C(=O)c1ccc(N2CCC(C3CCN(C(=O)C(O)(C(F)(F)F)C4(C)CC4)CC3)CC2)cc1Cl` (stereo not drawn) [Example A-30, 2-chloro-N,N-dimethyl-4-{1′-[3,3,3-trifluoro-2-hydroxy-2-(1-methylcyclopropyl)propanoyl]-4,4′-bipiperidin-1-yl}benzamide] are 0.073 µM, 2.12 µM, 119% and 62%.
With `CC(c1ccon1)N(C)C(=O)c1ccc(N2CCC(C3CCN(C(=O)[C@](O)(c4ccccc4)C(F)(F)F)CC3)CC2)cc1Cl` (stereo partly drawn) [Example E-51, 2-chloro-N-(1-isoxazol-3-ylethyl)-N-methyl-4-{1′-[(2R)-3,3,3-trifluoro-2-hydroxy-2-phenylpropanoyl]-4,4′-bipiperidin-1-yl}benzamide], the EC50 in assay [1] turned out to be 0.145 µM; in assay [2] (setting [3]), 1.72 µM. The Emax in assay [1] was found to be 62%; in assay [2] it was 18%.
The matching figures for `CC(C)C(O)(C(=O)N1CCC(C2CCN(c3ccc(C(=O)N4CCOC[C@H]4C)c(Cl)c3)CC2)CC1)C(F)(F)F` (stereo partly drawn) [Example E-10, 2-{[1′-(3-chloro-4-{[(3R)-3-methylmorpholin-4-yl]carbonyl}phenyl)-4,4′-bipiperidin-1-yl]carbonyl}-1,1,1-trifluoro-3-methylbutan-2-ol]: 0.219 µM, 1.26 µM, 72% and 32%.
